Data as given in publication PMC5118688 (Scientific Reports, 2016).
In brackets after ≈: the same amount, converted by molar mass. Where two headings read alike, the source gives them in different places.

Columns and labels:
[1] = system: mAb3C9; assay: optimized chemosynthesized antigen-based dcELISA (mAb3C9 and hapten 6-OVA); settings: for CR (%): Hapten 6-OVA, (IC50 of parathion-methyl/IC50 of pesticide) × 100; for LOD (IC10): mAb3C9, Hapten 6-OVA; for IC50 ± SD: mAb3C9, coating antigen Hapten 6-OVA
Method: (§1) The dcELISA procedure was performed as below. First, the plate (Costar, Corning Inc., New York, USA) was coated with coating antigen (100 μL/well in 1 × PBS) for 1 h at 37 °C. Then, the wells were washed four times with PBST (1 × PBS with 0.05% (v/v) Tween-20) and blocked with 2% skim milk (200 μL/well) for 1 h at 37 °C. After washing four times, 50 μL analyte in MeOH-water solution and 50 μL mAb-HRP in PBS were added. The plate was incubated for 1 h at 37 °C and then washed four times before adding TMB solution (100 μL/well). After incubation for 15 min at 37 °C, 50 μL/well of H2SO4 (2 mol/L) was added to stop the reaction, and the absorbance was recorded at 450 nm using the Model 680 plate reader (Bio-Rad, USA).
(§2) 18 kinds of O,O-dimethyl OPs and 6 kinds of O,O-diethyl OPs were purchased from National Standards of China and used for the selectivity and sensitivity study using the optimized dcELISA procedure. […] The IC50 value and detection limit of each OP were calculated. The CR value, which was used to evaluate the selectivity of the method, was calculated using the following equation:

[2] = ref Liang et al. 9; cited from earlier work
[3] = ref Hua et al. 11; cited from earlier work
[4] = system: mAb4D11; assay: optimized mAb4D11-based dcELISA; settings: mAb4D11-based dcELISA
Method: as §1, §2

[5] = system: mAb3C9; assay: mimotope-based dcELISA (mAb3C9 and M20-GST-BAD/SA-HRP competitor); assay type: binding, mouse; settings: for CR (%): M20-GST-BAD, (IC50 of parathion-methyl/IC50 of pesticide) × 100; for LOD (IC10): mAb3C9, M20-GST-BAD; for IC50 ± SD: mAb3C9, competitor M20-GST-BAD
Method: To develop a mimotope-based dcELISA, the biotinylated mimotope fusion protein was firstly assembled with streptavidin-HRP conjugate (SA-HRP) utilized the high affinity of biotin and streptavidin. The assembly process was just mixing a certain amount of biotinylated mimotope fusion protein with SA-HRP and incubating them at 4 °C overnight before use as an HRP-labeled competitor.
An innovative mimotope-based dcELISA was developed and performed as below. […] TMB solution (100 μL/well) was added and incubated for 15 min at 37 °C.
The optimal condition for mimotope-based dcELISA was optimized as chemosynthesized antigen-based dcELISA. The selectivity and sensitivity of the developed mimotope-based dcELISA for the 24 OPs were also determined under the optimum condition.

[6] = system: mAb against a generic hapten (3-(4-dimethoxyphosphorothioyloxy phenyl)propanoic acid); settings: ref Liu et al. 10; cited from earlier work

SMILES | CR (%) [1] | LOD (IC10) [1] | IC50 ± SD [1] | IC50 [2] | IC50 [3] | CR (%) [4] | IC50 [4] | LOD [4] | CR (%) [5] | LOD (IC10) [5] | IC50 ± SD [5] | IC50 [6]
COP(=S)(OC)Oc1ccc(SC)c(C)c1 [Fenthion] | 32.1% | 3.0 ng/mL | 14.5 ± 1.1 ng/mL (≈ 0.0521 µM) | 788.9 ng/mL (≈ 2.83 µM) | > 100000 ng/mL | 303.6% | 4.8 ng/mL (≈ 0.0172 µM) | 0.9 ng/mL | 21.6% | 4.4 ng/mL | 23.4 ± 1.7 ng/mL (≈ 0.0841 µM) | 1210 ng/mL (≈ 4.35 µM)
COP(=S)(OC)Oc1ccc([N+](=O)[O-])cc1 [Parathion-methyl] | 100.0% | 0.9 ng/mL | 4.7 ± 0.3 ng/mL (≈ 0.0179 µM) | 438.9 ng/mL (≈ 1.67 µM) | 3.7 ng/mL (≈ 0.0141 µM) | 100.0% | 14.5 ng/mL (≈ 0.0551 µM) | 2.0 ng/mL | 100.0% | 0.9 ng/mL | 5.1 ± 0.2 ng/mL (≈ 0.0194 µM) | 580 ng/mL (≈ 2.2 µM)
